Each structure is given as a SMILES string. Some results are limits rather than exact numbers.

In the first test the test system is NL-RLuc virus (recombinant HIV NL4-3 proviral clone with Renilla Luciferase) in MT-2 cells. Nature of the test: Inhibition of HIV Replication (NL-RLuc luciferase reporter virus, MT-2 cells). The class given is cell-based. Particulars: MT2, 120 h, read-out: Activity. The text has this:
Inhibition of HIV Replication:
A recombinant NL-RLuc proviral clone was constructed in which a section of the nef gene from NL4-3 was replaced with the Renilla Luciferase gene. This virus is fully infectious and can undergo multiple cycles of replication in cell culture. In addition, the luciferous reporter provides a simple and easy method for quantitating the extent of virus growth and consequently, the antiviral activity of test compounds. The plasmid pNLRLuc contains the proviral NL-Rluc DNA cloned into pUC 18 at the PvuII site. The NL-RLuc virus was prepared by transfection of 293T cells with the plasmid pNLRLuc. Transfections were performed using the LipofectAMINE PLUS kit from Invitrogen (Carlsbad, Calif.) according to the manufacturer and the virus generated was titered in MT-2 cells. For susceptibility analyses, the titrated virus was used to infect MT-2 cells in the presence of compound, and after 5 days of incubation, cells were processed and quantitated for virus growth by the amount of expressed luciferase. Assay media was RPMI 1640 supplemented with 10% heat inactivated fetal bovine serum (FBS), 100 units/ml penicillin G/100 units/ml streptomycin, 10 mM HEPES buffer pH 7.55 and 2 mM L-glutamine. The results from at least 2 experiments were used to calculate the EC50 values. Luciferase was quantitated using the Dual Luciferase kit from Promega (Madison, Wis.). Susceptibility of viruses to compounds was determined by incubation in the presence of serial dilutions of the compound. The 50% effective concentration (EC50) was calculated by using the exponential form of the median effect equation where (Fa)=1/[1+(ED50/drug conc.)^m](Johnson V A, Byington R T. Infectivity Assay. In Techniques in HIV Research. ed. Aldovini A, Walker B D. 71-76. New York: Stockton Press. 1990). Activity equal to A refers to a compound having an EC50≤100 nM, while B and C denote compounds having an EC50 between 100 nM and 1 uM (B) or >1 uM (C).
A general note: Reporter assays use an easily measured gene product as a stand-in for the process of interest.
In the case of `Cc1nc(C)c([C@H](OC(C)(C)C)C(=O)O)c(N2CCC(C)(C)CC2)c1-c1ccc(CN(Cc2ccc(F)cc2)C(=O)C(C)(C)C)cc1` [Example 25, (S)-2-(tert-butoxy)-2-(4-(4,4-dimethylpiperidin-1-yl)-5-(4-((N-(4-fluorobenzyl)pivalamido)methyl)phenyl)-2,6-dimethylpyridin-3-yl)acetic acid], the EC50 was less than 0.1 µM.

`Cc1nc(C)c([C@H](OC(C)(C)C)C(=O)O)c(N2CCC(C)(C)CC2)c1-c1ccc(CNCc2ccc(Cl)c(Cl)c2)cc1` [Example 12, (S)-2-(tert-butoxy)-2-(5-(4-(((3,4-dichlorobenzyl)amino)methyl)phenyl)-4-(4,4-dimethylpiperidin-1-yl)-2,6-dimethylpyridin-3-yl)acetic acid]: the EC50 is less than 0.1 µM.

In the case of `Cc1nc(C)c([C@H](OC(C)(C)C)C(=O)O)c(N2CCC(C)(C)CC2)c1-c1ccc(CNCCc2ccc(F)cc2)cc1` [Example 11, (S)-2-(tert-butoxy)-2-(4-(4,4-dimethylpiperidin-1-yl)-5-(4-(((4-fluorophenethyl)amino)methyl)phenyl)-2,6-dimethylpyridin-3-yl)acetic acid], the EC50 is less than 0.1 µM.

Regarding `COC(=O)c1ccc(CNCc2ccc(-c3c(C)nc(C)c([C@H](OC(C)(C)C)C(=O)O)c3N3CCC(C)(C)CC3)cc2)cc1` [Example 18, (S)-2-(tert-butoxy)-2-(4-(4,4-dimethylpiperidin-1-yl)-5-(4-(((4-(methoxycarbonyl)benzyl)amino)methyl)phenyl)-2,6-dimethylpyridin-3-yl)acetic acid], the EC50 is 0.1 to 1 µM.

Regarding `COc1ccc(CCNCc2ccc(-c3c(C)nc(C)c([C@H](OC(C)(C)C)C(=O)O)c3N3CCC(C)(C)CC3)cc2)cc1` [Example 8, (S)-2-(tert-butoxy)-2-(4-(4,4-dimethylpiperidin-1-yl)-5-(4-(((4-methoxyphenethyl)amino)methyl)phenyl)-2,6-dimethylpyridin-3-yl)acetic acid], the EC50 was less than 0.1 µM.

Regarding `Cc1nc(C)c([C@H](OC(C)(C)C)C(=O)O)c(N2CCC(C)(C)CC2)c1-c1ccc(CN(Cc2ccc(F)cc2)C(=O)c2ccc(F)cc2)cc1` [Example 28, (S)-2-(tert-butoxy)-2-(4-(4,4-dimethylpiperidin-1-yl)-5-(4-((4-fluoro-N-(4-fluorobenzyl)benzamido)methyl)phenyl)-2,6-dimethylpyridin-3-yl)acetic acid], the EC50 is less than 0.1 µM.

As to `Cc1nc(C)c([C@H](OC(C)(C)C)C(=O)O)c(N2CCC(C)(C)CC2)c1-c1ccc(CN(Cc2ccc(F)cc2)C(=O)c2ccccc2C(F)(F)F)cc1` [Example 39, (S)-2-(tert-butoxy)-2-(4-(4,4-dimethylpiperidin-1-yl)-5-(4-((N-(4-fluorobenzyl)-2-(trifluoromethyl)benzamido)methyl)phenyl)-2,6-dimethylpyridin-3-yl)acetic acid], the EC50 was less than 0.1 µM.

Take `Cc1nc(C)c([C@H](OC(C)(C)C)C(=O)O)c(N2CCC(C)(C)CC2)c1-c1ccc(CN(C)Cc2ccc(F)cc2)cc1` [Example 7, (S)-2-(tert-butoxy)-2-(4-(4,4-dimethylpiperidin-1-yl)-5-(4-(((4-fluorobenzyl)(methyl)amino)methyl)phenyl)-2,6-dimethylpyridin-3-yl)acetic acid]: the EC50 is less than 0.1 µM.

As to `COc1ccccc1CCNCc1ccc(-c2c(C)nc(C)c([C@H](OC(C)(C)C)C(=O)O)c2N2CCC(C)(C)CC2)cc1` [Example 9, (S)-2-(tert-butoxy)-2-(4-(4,4-dimethylpiperidin-1-yl)-5-(4-(((2-methoxyphenethyl)amino)methyl)phenyl)-2,6-dimethylpyridin-3-yl)acetic acid], the EC50 was less than 0.1 µM.

Turning to `Cc1nc(C)c([C@H](OC(C)(C)C)C(=O)O)c(N2CCC(C)(C)CC2)c1-c1ccc(CNCCC(C)(C)C)cc1` [Example 6, (S)-2-(tert-butoxy)-2-(5-(4-(((3,3-dimethylbutyl)amino)methyl)phenyl)-4-(4,4-dimethylpiperidin-1-yl)-2,6-dimethylpyridin-3-yl)acetic acid], the EC50 fell in the range of 0.1 to 1 µM.

The test is the same for the next values; noted with them: MT2, 120 h, read-out: EC50 μM.
Take `COC(=O)c1ccc(CNCc2ccc(-c3c(C)nc(C)c([C@H](OC(C)(C)C)C(=O)O)c3N3CCC(C)(C)CC3)cc2)cc1` [Example 18, (S)-2-(tert-butoxy)-2-(4-(4,4-dimethylpiperidin-1-yl)-5-(4-(((4-(methoxycarbonyl)benzyl)amino)methyl)phenyl)-2,6-dimethylpyridin-3-yl)acetic acid]: the EC50 came to 0.228 µM.

Regarding `COc1ccc(CCNCc2ccc(-c3c(C)nc(C)c([C@H](OC(C)(C)C)C(=O)O)c3N3CCC(C)(C)CC3)cc2)cc1` [Example 8, (S)-2-(tert-butoxy)-2-(4-(4,4-dimethylpiperidin-1-yl)-5-(4-(((4-methoxyphenethyl)amino)methyl)phenyl)-2,6-dimethylpyridin-3-yl)acetic acid], the EC50 was 0.09 µM.
